Blank lines part the entries; values can stand above or below the compound they belong to. Active and inactive are the calls of the source. No cut-off for these calls is given here.
Experiments:
Histamine H3 receptor [1] = biological target: Histamine H3 receptor (Homo sapiens, UniProt Q9Y5N1); test: Displacement of [3H]N-alpha-methylhistamine from recombinant human histamine H3 receptor expressed in HEK cell membranes after 30 mins by scintillation counting; set-up: species or system HEK293
Mus musculus [2] = test: Ex-vivo receptor occupancy in ICR mouse cortex assessed as displacement of [3H]N-alpha-methylhistamine from histamine H3 receptor at 10 mg/kg, po after 4 hrs post dose by scintillation counting; type: functional
Mus musculus [3] = test: Antidiabetic activity in STZ-induced diabetic ICR mouse DIO model at 30 mg/kg, po qd for 2 days; type: functional, organism-based; set-up: dose 30 mg/kg
Histamine H3 receptor [4] = biological target: Histamine H3 receptor (Mus musculus, UniProt P58406); test: Displacement of [3H]N-alpha-methylhistamine from mouse histamine H3 receptor
[5] = AUC (0 to 6 hrs) in rat at 10 mg/kg, po; type: ADME, organism-based; set-up: time < 6 hr, dose 10 mg/kg, route oral; conditions: plasma
Mus musculus [6] = test: Antiobesity activity in STZ-induced diabetic ICR mouse DIO model at 30 mg/kg, po qd for 2 days; type: functional, organism-based; set-up: dose 30 mg/kg
[7] = Drug uptake in rat brain at 10 mg/kg, po after 4 hrs; type: ADME, organism-based; set-up: dose 10 mg/kg, route oral; conditions: read-out: Drug uptake
Mus musculus [8] = test: Antiobesity activity in STZ-induced diabetic ICR mouse DIO model assessed as reduction in food intake at 30 mg/kg, po qd for 2 days relative to vehicle-treated control; type: functional; conditions: 48 h
Mus musculus [9] = test: Antiobesity activity in STZ-induced diabetic ICR mouse DIO model assessed as change in body weight at 30 mg/kg, po qd for 2 days relative to vehicle-treated control; type: functional
Cytochrome P450 2D6 [10] = biological target: T1, Cytochrome P450 2D6 (Homo sapiens, UniProt P10635); test: Inhibition of CYP2D6 preincubated with compound; type: ADME
Cytochrome P450 2D6 [11] = biological target: T1, Cytochrome P450 2D6; test: Inhibition of CYP2D6 co-incubated with compound; type: ADME
hERG = hERG (Homo sapiens, UniProt Q12809); test: Inhibition of human ERG at 10 uM
Cytochrome P450 3A4 [12] = biological target: T2, Cytochrome P450 3A4 (Homo sapiens, UniProt P08684); test: Inhibition of CYP3A4 co-incubated with compound; type: ADME
Mus musculus [13] = test: Ex-vivo receptor occupancy in ICR mouse cortex assessed as displacement of [3H]N-alpha-methylhistamine from histamine H3 receptor at 30 mg/kg, po after 4 hrs post dose by scintillation counting; type: functional
Cytochrome P450 2C9 [14] = biological target: T3, Cytochrome P450 2C9 (Homo sapiens, UniProt P11712); test: Inhibition of CYP2C9 co-incubated with compound; type: ADME
Cytochrome P450 3A4 [15] = biological target: T2, Cytochrome P450 3A4; test: Inhibition of CYP3A4 preincubated with compound; type: ADME
Mus musculus [16] = test: Antidiabetic activity in STZ-induced diabetic ICR mouse DIO model assessed as glucose level at 30 mg/kg, po qd for 2 days; type: functional
Cytochrome P450 2C9 [17] = biological target: T3, Cytochrome P450 2C9; test: Inhibition of CYP2C9 preincubated with compound; type: ADME; conditions: read-out: INH

T2 sequence (P08684 whole entry): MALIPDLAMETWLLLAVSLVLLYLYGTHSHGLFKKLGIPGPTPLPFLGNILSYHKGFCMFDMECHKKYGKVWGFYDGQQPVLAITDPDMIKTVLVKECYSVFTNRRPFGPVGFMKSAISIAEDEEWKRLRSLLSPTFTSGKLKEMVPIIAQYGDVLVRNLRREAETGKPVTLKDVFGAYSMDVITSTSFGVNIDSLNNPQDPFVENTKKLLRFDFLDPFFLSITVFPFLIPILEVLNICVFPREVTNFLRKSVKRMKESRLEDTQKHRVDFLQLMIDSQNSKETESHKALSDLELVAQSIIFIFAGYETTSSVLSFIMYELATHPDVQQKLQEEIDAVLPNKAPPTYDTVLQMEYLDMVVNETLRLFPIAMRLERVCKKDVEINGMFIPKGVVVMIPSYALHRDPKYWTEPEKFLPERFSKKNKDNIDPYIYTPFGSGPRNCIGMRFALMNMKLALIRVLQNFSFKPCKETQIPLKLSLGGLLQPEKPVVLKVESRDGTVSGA
Chain of Histamine H3 receptor (Mus musculus, UniProt P58406) (P58406 whole entry): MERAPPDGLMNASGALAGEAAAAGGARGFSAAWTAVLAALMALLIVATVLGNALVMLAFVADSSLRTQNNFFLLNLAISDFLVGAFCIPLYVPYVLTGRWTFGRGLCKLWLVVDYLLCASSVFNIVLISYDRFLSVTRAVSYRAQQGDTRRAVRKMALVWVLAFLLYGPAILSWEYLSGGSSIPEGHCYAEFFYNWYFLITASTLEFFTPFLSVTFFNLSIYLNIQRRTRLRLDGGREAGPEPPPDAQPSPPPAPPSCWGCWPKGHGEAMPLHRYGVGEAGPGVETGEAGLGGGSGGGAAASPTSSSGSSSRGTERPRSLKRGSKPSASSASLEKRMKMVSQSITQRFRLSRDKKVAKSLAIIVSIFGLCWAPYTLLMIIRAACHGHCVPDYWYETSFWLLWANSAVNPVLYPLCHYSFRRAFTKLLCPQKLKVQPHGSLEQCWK
T1 sequence (P10635 whole entry): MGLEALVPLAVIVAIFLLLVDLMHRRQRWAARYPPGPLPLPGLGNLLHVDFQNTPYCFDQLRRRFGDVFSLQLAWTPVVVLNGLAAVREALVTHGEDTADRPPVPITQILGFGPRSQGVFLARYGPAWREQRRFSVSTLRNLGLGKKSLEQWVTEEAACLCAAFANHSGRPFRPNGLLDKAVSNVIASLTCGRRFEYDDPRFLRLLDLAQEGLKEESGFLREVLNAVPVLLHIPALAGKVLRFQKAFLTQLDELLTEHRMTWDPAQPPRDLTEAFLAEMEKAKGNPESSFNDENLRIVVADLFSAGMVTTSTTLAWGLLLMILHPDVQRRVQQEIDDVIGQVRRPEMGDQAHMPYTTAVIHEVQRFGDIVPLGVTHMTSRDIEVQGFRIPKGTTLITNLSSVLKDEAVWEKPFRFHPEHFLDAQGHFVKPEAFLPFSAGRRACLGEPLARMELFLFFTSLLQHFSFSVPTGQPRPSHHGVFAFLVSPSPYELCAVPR
Chain of Histamine H3 receptor (Homo sapiens, UniProt Q9Y5N1) (Q9Y5N1 whole entry): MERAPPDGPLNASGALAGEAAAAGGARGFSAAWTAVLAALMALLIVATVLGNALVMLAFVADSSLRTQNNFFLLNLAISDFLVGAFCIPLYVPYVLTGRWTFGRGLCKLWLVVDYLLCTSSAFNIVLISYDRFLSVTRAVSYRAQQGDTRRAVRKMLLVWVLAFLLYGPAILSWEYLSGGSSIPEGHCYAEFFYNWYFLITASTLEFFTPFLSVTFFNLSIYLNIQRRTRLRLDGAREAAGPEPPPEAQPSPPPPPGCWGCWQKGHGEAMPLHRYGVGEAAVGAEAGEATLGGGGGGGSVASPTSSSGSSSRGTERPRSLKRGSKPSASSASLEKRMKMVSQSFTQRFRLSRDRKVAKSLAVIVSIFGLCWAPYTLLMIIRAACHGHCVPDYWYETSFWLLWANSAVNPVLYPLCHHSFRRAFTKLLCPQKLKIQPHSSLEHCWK
T3 sequence (P11712 whole entry): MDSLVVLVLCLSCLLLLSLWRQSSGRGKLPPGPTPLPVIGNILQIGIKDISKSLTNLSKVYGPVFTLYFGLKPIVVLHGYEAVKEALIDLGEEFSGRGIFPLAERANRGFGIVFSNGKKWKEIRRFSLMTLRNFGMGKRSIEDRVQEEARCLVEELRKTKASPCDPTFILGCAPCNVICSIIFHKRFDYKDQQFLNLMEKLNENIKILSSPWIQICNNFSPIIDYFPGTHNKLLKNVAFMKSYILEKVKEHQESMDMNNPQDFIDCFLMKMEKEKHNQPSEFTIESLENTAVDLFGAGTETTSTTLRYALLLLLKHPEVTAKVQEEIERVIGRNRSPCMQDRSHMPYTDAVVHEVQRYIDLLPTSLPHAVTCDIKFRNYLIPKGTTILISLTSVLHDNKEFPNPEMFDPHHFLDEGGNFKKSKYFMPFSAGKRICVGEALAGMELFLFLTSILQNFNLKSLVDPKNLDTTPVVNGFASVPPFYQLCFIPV
Chain of hERG (Q12809 whole entry): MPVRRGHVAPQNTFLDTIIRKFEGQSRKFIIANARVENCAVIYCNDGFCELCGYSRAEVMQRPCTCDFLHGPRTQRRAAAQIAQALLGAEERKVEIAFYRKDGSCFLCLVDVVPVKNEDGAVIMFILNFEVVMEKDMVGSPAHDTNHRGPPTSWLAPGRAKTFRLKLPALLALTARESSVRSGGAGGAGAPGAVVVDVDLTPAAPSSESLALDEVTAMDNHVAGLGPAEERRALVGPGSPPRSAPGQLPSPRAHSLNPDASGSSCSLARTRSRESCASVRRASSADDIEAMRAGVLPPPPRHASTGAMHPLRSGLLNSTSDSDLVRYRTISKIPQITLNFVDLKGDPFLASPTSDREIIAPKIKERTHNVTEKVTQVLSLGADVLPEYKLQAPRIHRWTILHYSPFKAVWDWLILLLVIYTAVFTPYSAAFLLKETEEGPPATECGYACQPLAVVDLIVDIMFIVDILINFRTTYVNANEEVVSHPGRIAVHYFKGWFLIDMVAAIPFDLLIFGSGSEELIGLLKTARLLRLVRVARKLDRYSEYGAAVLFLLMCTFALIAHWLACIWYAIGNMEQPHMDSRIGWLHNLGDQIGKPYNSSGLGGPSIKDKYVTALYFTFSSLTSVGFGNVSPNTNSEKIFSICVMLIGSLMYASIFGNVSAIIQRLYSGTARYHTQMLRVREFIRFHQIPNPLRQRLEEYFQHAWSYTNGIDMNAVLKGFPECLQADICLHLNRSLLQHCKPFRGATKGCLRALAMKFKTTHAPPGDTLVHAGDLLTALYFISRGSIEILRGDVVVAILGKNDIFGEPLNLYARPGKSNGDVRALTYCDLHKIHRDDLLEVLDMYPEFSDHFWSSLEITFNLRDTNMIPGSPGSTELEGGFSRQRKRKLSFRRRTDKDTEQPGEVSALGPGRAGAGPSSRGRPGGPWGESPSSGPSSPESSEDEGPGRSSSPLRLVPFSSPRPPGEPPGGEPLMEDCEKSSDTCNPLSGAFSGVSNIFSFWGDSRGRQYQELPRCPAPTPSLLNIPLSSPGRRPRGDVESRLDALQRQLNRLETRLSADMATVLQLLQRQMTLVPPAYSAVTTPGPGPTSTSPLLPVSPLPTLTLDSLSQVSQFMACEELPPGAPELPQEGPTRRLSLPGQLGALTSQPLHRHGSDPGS

Ki (Histamine H3 receptor [1]): 3.2 nM
Structure (SMILES): c1cc(-c2nnc(N3CCC(N4CCCCC4)CC3)s2)n2nccc2c1
Occ (Mus musculus [2]): 22%

Ki (Histamine H3 receptor [1]): 20 nM
Structure (SMILES): O=c1ccc2c(-c3nnc(N4CCC(N5CCCCC5)CC4)s3)cccc2[nH]1
Occ (Mus musculus [2]): 6%

Ki (Histamine H3 receptor [4]): 2.6 nM
AUC(0-t) at 6 h [5]: 840 ng·h/mL
Ki (Histamine H3 receptor [1]): 2.1 nM
concentration at 4 h [7]: 2670 ng/g
Structure (SMILES): O=c1ccnc2c(-c3nnc(N4CCC(N5CCCCC5)CC4)s3)cccn12
Activity (Mus musculus [3]): inactive
Occ (Mus musculus [2]): 94%
Activity (Mus musculus [6]): inactive

Ki (Histamine H3 receptor [1]): 10 nM
Structure (SMILES): O=c1ccc2cc(-c3nnc(N4CCC(N5CCCCC5)CC4)s3)ccc2[nH]1
Occ (Mus musculus [2]): 25%

Ki (Histamine H3 receptor [1]): 12 nM
Structure (SMILES): O=c1cccnn1-c1cccc(-c2nnc(N3CCC(N4CCCCC4)CC3)s2)c1
Occ (Mus musculus [2]): 25%

INH (Cytochrome P450 2D6 [10]): > 20 µM
INH (Cytochrome P450 2D6 [11]): > 20 µM
INH (Cytochrome P450 3A4 [12]): > 20 µM
INH (Cytochrome P450 2C9 [14]): > 20 µM
INH (Cytochrome P450 3A4 [15]): > 20 µM
IC50 (Cytochrome P450 2C9 [17]): > 20000 nM
Structure (SMILES): CC(=O)c1cccc(-c2nnc(N3CCC(N4CCCCC4)CC3)s2)c1
inhibition in vivo at 30 mg/kg (Mus musculus [8]): 5.61%
Activity (Mus musculus [9]): -1.01%
inhibition at 10 µM (hERG): 40%
Occ (Mus musculus [13]): 62%
Activity (Mus musculus [16]): 7.08 mg/mL

Ki (Histamine H3 receptor [4]): 7.2 nM
AUC(0-t) at 6 h [5]: 530 ng·h/mL
Ki (Histamine H3 receptor [1]): 4.6 nM
concentration at 4 h [7]: 110 ng/g
Structure (SMILES): c1cnc2c(-c3nnc(N4CCC(N5CCCCC5)CC4)s3)cccc2c1
Activity (Mus musculus [3]): inactive
Occ (Mus musculus [2]): 77%
Activity (Mus musculus [6]): inactive

AUC(0-t) at 6 h [5]: 8000 ng·h/mL
Ki (Histamine H3 receptor [1]): 82.8 nM
Structure (SMILES): Cc1cc(=O)c2cc(-c3nnc(N4CCC(N5CCCCC5)CC4)s3)ccc2o1

Ki (Histamine H3 receptor [1]): 22.1 nM
Structure (SMILES): O=C1COc2ccc(-c3nnc(N4CCC(N5CCCCC5)CC4)s3)cc2N1

Ki (Histamine H3 receptor [4]): 12 nM
AUC(0-t) at 6 h [5]: 1300 ng·h/mL
Ki (Histamine H3 receptor [1]): 12.7 nM
concentration at 4 h [7]: 268 ng/g
Structure (SMILES): O=c1ccoc2ccc(-c3nnc(N4CCC(N5CCCCC5)CC4)s3)cc12
Activity (Mus musculus [3]): inactive
Occ (Mus musculus [2]): 84%
Activity (Mus musculus [6]): inactive

Ki (Histamine H3 receptor [1]): 78.9 nM
Structure (SMILES): O=C(c1cccc(-c2nnc(N3CCC(N4CCCCC4)CC3)s2)c1)N1CCC1

INH (Cytochrome P450 2D6 [10]): > 20 µM
INH (Cytochrome P450 2D6 [11]): > 20 µM
INH (Cytochrome P450 3A4 [12]): > 20 µM
Ki (Histamine H3 receptor [4]): 25 nM
AUC(0-t) at 6 h [5]: 7300 ng·h/mL
Ki (Histamine H3 receptor [1]): 13 nM
INH (Cytochrome P450 2C9 [14]): > 20 µM
INH (Cytochrome P450 3A4 [15]): > 20 µM
concentration at 4 h [7]: 1340 ng/g
IC50 (Cytochrome P450 2C9 [17]): > 20000 nM
Structure (SMILES): O=c1ccnc2ccc(-c3nnc(N4CCC(N5CCCCC5)CC4)s3)cn12
inhibition in vivo at 30 mg/kg (Mus musculus [8]): 33.6%
Activity (Mus musculus [9]): -3.02%
inhibition at 10 µM (hERG): 7%
Occ (Mus musculus [2]): 69%
glucose change (Mus musculus [16]): -87 mg/dL

Ki (Histamine H3 receptor [1]): 29 nM
Structure (SMILES): CC(O)c1cccc(-c2nnc(N3CCC(N4CCCCC4)CC3)s2)c1 (centres undefined)

Ki (Histamine H3 receptor [1]): 24.5 nM
Structure (SMILES): Cc1nc2cc(-c3nnc(N4CCC(N5CCCCC5)CC4)s3)ccc2o1

Ki (Histamine H3 receptor [1]): 16.5 nM
Structure (SMILES): CC(=O)Nc1cccc(-c2nnc(N3CCC(N4CCCCC4)CC3)s2)c1

Ki (Histamine H3 receptor [4]): 2.4 nM
AUC(0-t) at 6 h [5]: 1200 ng·h/mL
Ki (Histamine H3 receptor [1]): 3.4 nM
concentration at 4 h [7]: 25 ng/g
Structure (SMILES): Cc1nnc2ccc(-c3nnc(N4CCC(N5CCCCC5)CC4)s3)cn12
Activity (Mus musculus [3]): inactive
Occ (Mus musculus [2]): 34%
Activity (Mus musculus [6]): inactive

Ki (Histamine H3 receptor [1]): 64.4 nM
Structure (SMILES): O=C1Cc2cc(-c3nnc(N4CCC(N5CCCCC5)CC4)s3)ccc2N1

Ki (Histamine H3 receptor [1]): 35.9 nM
Structure (SMILES): O=c1ccc2ccc(-c3nnc(N4CCC(N5CCCCC5)CC4)s3)cc2[nH]1
Occ (Mus musculus [2]): 2%

Ki (Histamine H3 receptor [1]): 192 nM
Structure (SMILES): CN(C)C(=O)c1cccc(-c2nnc(N3CCC(N4CCCCC4)CC3)s2)c1

Ki (Histamine H3 receptor [4]): 40 nM
AUC(0-t) at 6 h [5]: 2500 ng·h/mL
Ki (Histamine H3 receptor [1]): 22.8 nM
concentration at 4 h [7]: 1290 ng/g
Structure (SMILES): Cc1nnc(-c2cccc(-c3nnc(N4CCC(N5CCCCC5)CC4)s3)c2)o1
Activity (Mus musculus [3]): inactive
Occ (Mus musculus [2]): 46%
Activity (Mus musculus [6]): inactive

Ki (Histamine H3 receptor [1]): 17.8 nM
Structure (SMILES): c1cc(-c2nnc(N3CCC(N4CCCCC4)CC3)s2)c2ccncc2c1
Occ (Mus musculus [2]): 19%

Ki (Histamine H3 receptor [1]): 4.4 nM
Structure (SMILES): O=C(c1cccc(-c2nnc(N3CCC(N4CCCCC4)CC3)s2)n1)N1CCC1
Occ (Mus musculus [2]): 6%

Source: ChEMBL document CHEMBL2029248, “Fused bicycles as arylketone bioisosteres leading to potent, orally active thiadiazole H3 antagonists” (Bioorg Med Chem Lett, 2012)
